According to ChEMBL document CHEMBL3627677, “Novel 2H-chromen-2-one derivatives of resveratrol: Design, synthesis, modeling and use as human monoamine oxidase inhibitors” (Eur J Med Chem, 2015):

Experiments:
[1] = Toxicity in SPF Kuming mouse assessed as death at 500 to 1000 mg/kg, po measured up to 14 days; type: organism-based; details: in vivo
[2] = biological target: T1, Amine oxidase [flavin-containing] A (Homo sapiens, UniProt P21397); experiment: Inhibition of recombinant human MAOA using p-tyramine as substrate assessed as H2O2 production preincubated for 15 mins followed by substrate addition by fluorometric analysis
T1 sequence (P21397 whole entry): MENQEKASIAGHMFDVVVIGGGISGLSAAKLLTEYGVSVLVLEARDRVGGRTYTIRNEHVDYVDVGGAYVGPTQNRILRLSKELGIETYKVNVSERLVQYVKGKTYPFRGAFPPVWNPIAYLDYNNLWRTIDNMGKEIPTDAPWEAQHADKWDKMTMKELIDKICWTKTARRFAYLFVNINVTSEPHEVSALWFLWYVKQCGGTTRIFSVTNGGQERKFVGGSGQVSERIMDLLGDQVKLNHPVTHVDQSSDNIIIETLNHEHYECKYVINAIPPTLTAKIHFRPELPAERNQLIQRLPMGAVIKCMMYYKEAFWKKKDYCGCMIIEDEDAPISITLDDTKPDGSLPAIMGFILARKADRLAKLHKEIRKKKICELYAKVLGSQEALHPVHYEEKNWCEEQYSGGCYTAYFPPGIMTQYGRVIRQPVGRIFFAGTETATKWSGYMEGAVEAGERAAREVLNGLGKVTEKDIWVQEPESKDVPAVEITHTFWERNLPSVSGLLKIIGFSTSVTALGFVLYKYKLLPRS

Homo sapiens [3] = species: Homo sapiens; experiment: Selectivity ratio of IC50 for recombinant human MAOB to IC50 for recombinant human MAOA
[4] = biological target: T2, Amine oxidase [flavin-containing] B (Homo sapiens, UniProt P27338); experiment: Inhibition of recombinant human MAOB using p-tyramine as substrate assessed as H2O2 production preincubated for 15 mins followed by substrate addition by fluorometric analysis
T2 sequence (P27338 whole entry): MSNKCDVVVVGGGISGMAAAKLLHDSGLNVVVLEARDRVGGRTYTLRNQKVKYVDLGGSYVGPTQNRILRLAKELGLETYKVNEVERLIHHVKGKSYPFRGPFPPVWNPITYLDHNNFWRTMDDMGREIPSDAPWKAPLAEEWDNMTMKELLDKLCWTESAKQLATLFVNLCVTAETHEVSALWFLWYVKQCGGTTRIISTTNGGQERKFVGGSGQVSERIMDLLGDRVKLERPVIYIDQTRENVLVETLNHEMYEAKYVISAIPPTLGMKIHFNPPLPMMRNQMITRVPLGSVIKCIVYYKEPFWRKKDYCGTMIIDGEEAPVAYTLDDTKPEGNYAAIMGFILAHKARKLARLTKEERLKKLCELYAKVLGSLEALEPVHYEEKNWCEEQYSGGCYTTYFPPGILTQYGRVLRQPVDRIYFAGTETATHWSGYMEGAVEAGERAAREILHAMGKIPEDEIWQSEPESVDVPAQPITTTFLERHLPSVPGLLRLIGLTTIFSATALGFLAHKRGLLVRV

Homo sapiens [5] = species: Homo sapiens; experiment: Selectivity ratio of IC50 for recombinant human MAOA to IC50 for recombinant human MAOB

| Compound | LD50 at 336 h [1] [mg/kg] | IC50 [2] [µM] | Ratio IC50 (Homo sapiens [3]) | IC50 [4] [µM] | Ratio IC50 (Homo sapiens [5]) |
| --- | --- | --- | --- | --- | --- |
| COc1ccc(/C=C/c2cc(OC)cc(OC)c2/C=C/C(=O)c2cc3ccc(C)cc3oc2=O)cc1 | > 1000 | 58.2 | 0.05 | 2.78 | 20.9 |
| COc1ccc(/C=C/c2cc(OC)cc(OC)c2/C=C/C(=O)c2cc3c(OC)cccc3oc2=O)cc1 |  | > 60 | < 0.24 | 14.5 | > 4.13 |
| C=CCc1cc(OC)c2oc(=O)c(C(=O)/C=C/c3c(/C=C/c4ccc(OC)cc4)cc(OC)cc3OC)cc2c1 |  | 5.3 | 9.53 | 50.5 | 0.1 |
| CCOc1cccc2cc(C(=O)/C=C/c3c(/C=C/c4ccc(OC)cc4)cc(OC)cc3OC)c(=O)oc12 | > 1000 | 3.2 | > 18.8 | > 60 | < 0.05 |
| COc1ccc(/C=C/c2cc(OC)cc(OC)c2/C=C/C(=O)c2cc3c(OC)cc(OC)cc3oc2=O)cc1 |  | 21.2 | 1.67 | 35.5 | 0.6 |
| COc1ccc(/C=C/c2cc(OC)cc(OC)c2/C=C/C(=O)c2cc3ccc(Br)cc3oc2=O)cc1 |  | 3.01 | 18.4 | 55.3 | 0.05 |
| COc1ccc(/C=C/c2cc(OC)cc(OC)c2/C=C/C(=O)c2cc3cc(F)ccc3oc2=O)cc1 |  | 44.3 | 0.23 | 10.2 | 4.36 |
| COc1ccc(/C=C/c2cc(OC)cc(OC)c2/C=C/C(=O)c2cc3cccc(OC)c3oc2=O)cc1 |  | > 60 | < 0.37 | 22.4 | > 2.68 |
| COc1ccc(/C=C/c2cc(OC)cc(OC)c2/C=C/C(=O)c2cc3cccc(Br)c3oc2=O)cc1 |  | > 60 |  | > 60 |  |
| COc1ccc(/C=C/c2cc(OC)cc(OC)c2/C=C/C(=O)c2cc3cc(Cl)ccc3oc2=O)cc1 |  | > 60 |  | > 60 |  |
| COc1ccc(/C=C/c2cc(OC)cc(OC)c2/C=C/C(=O)c2cc3ccc(N(C)C)cc3oc2=O)cc1 |  |  |  | > 60 |  |
| COc1ccc(/C=C/c2cc(OC)cc(OC)c2/C=C/C(=O)c2cc3ccc(Cl)cc3oc2=O)cc1 |  | > 60 | < 0.12 | 7.36 | > 8.15 |
| CCOc1ccc2cc(C(=O)/C=C/c3c(/C=C/c4ccc(OC)cc4)cc(OC)cc3OC)c(=O)oc2c1 |  | 7.07 | 6.8 | 48.1 | 0.15 |
| COc1ccc(/C=C/c2cc(OC)cc(OC)c2/C=C/C(=O)c2cc3cccc(C)c3oc2=O)cc1 |  | > 60 | < 0.33 | 20 | > 3 |
| COc1ccc(/C=C/c2cc(OC)cc(OC)c2/C=C/C(=O)c2cc3ccccc3oc2=O)cc1 |  | 41.7 | 0.22 | 9.17 | 4.54 |
| COc1ccc(/C=C/c2cc(OC)cc(OC)c2/C=C/C(=O)c2cc3cc(Br)ccc3oc2=O)cc1 |  | 12.1 | > 4.95 | > 60 | < 0.2 |
| COc1ccc(/C=C/c2cc(OC)cc(OC)c2/C=C/C(=O)c2cc3cc(C)ccc3oc2=O)cc1 |  | 30.4 | 0.17 | 5.09 | 5.97 |
| COc1ccc(/C=C/c2cc(OC)cc(OC)c2/C=C/C(=O)c2cc3cc(OC)ccc3oc2=O)cc1 |  | > 60 |  | > 60 |  |
| COc1ccc(/C=C/c2cc(OC)cc(OC)c2/C=C/C(=O)c2cc3ccc(OC)cc3oc2=O)cc1 |  | > 60 | < 0.07 | 4.2 | > 14.3 |
| COc1ccc(/C=C/c2cc(OC)cc(OC)c2/C=C/C(=O)c2cc3cc(Br)cc(OC)c3oc2=O)cc1 |  | > 60 |  | > 60 |  |
